From patent US20150313228A1, “SYNERGISTIC HERBICIDAL COMBINATIONS AND METHODS OF USE” (priority 2012, published 2015)

Test system: soybean varieties
Assay: Metribuzin sensitivity or tolerance phenotype of soybean varieties (Table S-3)
Assay type: in vivo, Glycine max
From the text: To observe the presence or absence of the “metribuzin sensitivity” or metribuzin tolerance phenotypes, soybean plants are typically exposed in early to mid-vegetative growth stages to one or more doses of metribuzin. Typical doses of metribuzin that can elicit a metribuzin sensitivity phenotype can range from about a 1-fold label application rate of a commercially available metribuzin formulation (i.e. about 0.25 pounds per acre) to about a 3-fold label application rate (i.e. about 0.75 pounds per acre) of a commercially available metribuzin formulation. Commercially available formulations containing metribuzin that can be used include, but are not limited to, Authority®MTZ (FMC Corporation, Philadelphia, Pa., USA); Boundary (Syngenta, Wilmington, Del., USA); Canopy® or Lexone® (Dupont, Wilmington, Del., USA); Sencor® (Bayer Crop Science, Research Triangle Park, N.C., USA); or TriCor® DF (United Phosphorus, Inc., King of Prussia, Pa., USA. In certain embodiments, the commercially available metribuzin formulation used is TriCor® 75DF. In certain embodiments, doses of metribuzin that can elicit a metribuzin sensitivity phenotype can range from about a 1 fold application rate of about 0.25 pounds per acre to about a three fold application rate of 0.75 pounds per acre.
The metribuzin sensitivity phenotype can be observed approximately one week to three weeks after herbicide application in certain soybean varieties that are sensitive to metribuzin. Metribuzin is typically applied during pre and post-emergent vegetative growth stages. In certain embodiments of these methods, metribuzin can be applied to the soil about 2 days prior to soybean seed planting and activated by irrigation of the planted seed to score for the presence of the metribuzin sensitivity phenotype. Genotypes provided herein are especially useful for providing metribuzin tolerance to plants exposed to metribuzin by a pre-emergence soil drench. As discussed herein, the vegetative stages of soybean are as follows: VE (emergence), VC (cotyledon stage), V1 (first trifoliate leaf), V2 (second trifoliate leaf), V3 (third trifoliate leaf), V(n) (nth trifoliate leaf), and V6 (flowering will soon start). As discussed herein, the reproductive stages of soybean are as follows: R1 (beginning bloom), R2 (full bloom), R3 (beginning pod), R4 (full pod), R5 (beginning seed), R6 (full seed), R7 (beginning maturity) and R8 (full maturity). A description of the soybean vegetative and reproductive stages can be found on the World Wide Web (internet) at ag.ndsu.edu/pubs/plantsci/rowcrops/a1174/a1174w.htm (North Dakota State University publication A-1174, June 1999, Reviewed and Reprinted August 2004).
A rating scale that evaluates the degree of metribuzin sensitivity can also be employed to identify “metribuzin sensitive” and “metribuzin tolerant” plants. An exemplary and non-limiting scale for evaluating the Metribuzin sensitivity phenotype is as follows, where a low number corresponds to a “metribuzin tolerance” phenotype and the a high number correlates to a “metribuzin sensitivity” phenotype:
A non-limiting and exemplary list of soybean plants that comprise genomic regions associated with either a metribuzin sensitivity or a metribuzin tolerance phenotype are provided herewith in Table S-3.

In the case of CSc1nnc(C(C)(C)C)c(=O)n1N [Metribuzin, 4-amino-6-(1,1-dimethylethyl)-3-(methylthio)-1,2,4-triazin-5(4H)-one], the “METRIBUZIN PHENOTYPE” value (soybean variety AG4531) is reported as “Tolerant”, the “METRIBUZIN PHENOTYPE” value (soybean variety AG4730) is reported as “Tolerant” and the “METRIBUZIN PHENOTYPE” value (soybean variety AG6130) is reported as “Sensitive”. The “METRIBUZIN PHENOTYPE” value (soybean variety AG6730) was “Sensitive”, the “METRIBUZIN PHENOTYPE” value (soybean variety AG6931) was “Tolerant” and the “METRIBUZIN PHENOTYPE” value (soybean variety BURLISON (from TRACY)) was “Sensitive”. For the same compound, the “METRIBUZIN PHENOTYPE” value (soybean variety DASSEL (from PAGODA)) was “Sensitive”, the “METRIBUZIN PHENOTYPE” value (soybean variety H7550) was “Sensitive” and the “METRIBUZIN PHENOTYPE” value (soybean variety PAGODA) was “Sensitive”. For the same compound, the “METRIBUZIN PHENOTYPE” value (soybean variety TRACY) was “Sensitive” and the “METRIBUZIN PHENOTYPE” value (soybean variety Tracy-M) was “Tolerant”.
